Measured values taken from US20120157402A1, “METHODS FOR TREATING BRAIN TUMORS” (priority 2009, published 2012).
Read-outs that look alike come from different tables or passages of the source. Marks after values point to notes of the source that are not given here.

Experiments:
in vivo [1] = settings: beagle, dog
Description: (§5) The L23 vehicle was used. […] All studies in the toxicology program were conducted according to GLP regulations.

[2] = Trough plasma concentrations of Compound #10 in HT1080 xenograft mice (HPLC-MS/MS); format: in vivo; settings: athymic nude, mouse, oral, 1 mg/kg BID
[3] = 7-day oral toxicity study in rats; settings: Sprague Dawley, rat, in vivo
Description: (§1) The L23 vehicle was used.
Maximal exposures occurred at a dose of 120 mg/kg/day.

in vivo [4] = settings: both, beagle, dog
Description: as §5

[5] = Single-dose oral toxicity study in rats; settings: Sprague Dawley, rat, in vivo, single oral gavage, read-out: NOAEL for 1 day of dosing
Description: as §1
Because maximal exposure occurred at 100 mg/kg, this dose is considered the NOAEL for 1 day of dosing.

in vivo [6] = settings: Sprague Dawley, rat
Description: as §5

[7] = Oral pharmacokinetics in mice; format: in vivo; settings: mouse, plasma, 1-mg/kg dose level, Day 1, read-out: Plasma trough concentration at 24 hours (minimal mean target plasma concentration)
Description: The pharmacokinetic evaluations in mice were adjuncts to the primary pharmacodynamic xenograft studies. The evaluations in rats included toxicokinetic assessments in single-dose, 7-day, and 28-day toxicology studies as well as a mass-balance study after a single oral dose of ^14C-Compound #10. The evaluations in dogs included toxicokinetic assessments in 7-day and 28-day toxicology studies. In the studies performed, rodents were dosed once daily with Compound #10 formulated in vehicle and administered via oral gavage.

[8] = Phase 1 multiple-dose study in healthy volunteers: pharmacokinetics (Table 28); format: in vivo; settings: human, plasma, oral; for concentration at 24 h: 24 hours after first daily dose, read-out: C24 h; for AUC(0-t): read-out: AUC0-24; for Cmax: read-out: Cmax (after PM dose)
Description: The study was performed under the oversight of the French health authorities. The study was not performed under an IND.
Methods. The trial was a Phase 1, randomized, escalating multiple dose, single center study conducted in 2 stages.
Capsules contained 2 mg or 20 mg of active substance.
Capsules contained 20 mg or 25 mg of active substance.
Noncompartmental methods were used to compute Tmax, Cmax, and AUC. Dose proportionality and sex effect were evaluated using ANOVA on log transformed PK parameters using dose, sex, and dose by sex as fixed factors.

HT1080 xenografts [9] = assay: Tumor growth in nude mice bearing HT1080 xenografts; format: in vivo, athymic nude mice
Description: (§2) In all of these experiments, HT1080 cells (5×10^6 cells/mouse) were implanted subcutaneously in male athymic nude mice. When tumors had become established, mice were divided into groups (10 mice/group). […] Tumor size was measured by calipers at the beginning and end of treatment. At the completion of Compound administration, the mice were sacrificed, and excised tumors were assayed by ELISA for intratumoral VEGF or other angiogenic factors using methods analogous to those described in Section 9.1.1.1.
Experimental Study Design. HT1080 cells (5×10^6 cells/mouse) were implanted subcutaneously in male athymic nude mice.
(§3) Tumor size was measured using calipers at periodic intervals during the study (data shown in Section 9.2.2). […] The study was ended after 18 days, when the vehicle treated tumors reached a mean volume of ˜1755 mm^3. […] Mice were sacrificed, and excised tumors were homogenized in buffer containing protease inhibitors. Both terminal intratumoral and pathologic plasma human VEGF levels were measured using an ELISA that recognizes human VEGF121 and VEGF165 (as described in Section 9.1.1.1). Intratumoral VEGF levels were normalized to the total tumor protein concentration, while pathologic plasma human VEGF levels were expressed in pg/mL of plasma.
Experimental Design. HT1080 cells (5×10^6 cells/mice) were implanted subcutaneously into male athymic nude mice. Treatment with vehicle alone or Compound 1205 was initiated when the median tumor volume was approximately 311±88 mm^3. Table 7 and Table 9 (study design #21 and #23) provide the study design for assessing tumor and plasma pathologic VEGF concentrations—each group in each study included eight (8) mice. When the tumors in vehicle-treated mice had reached the target size of ˜1200 mm^3 for study #21 and ˜1500 mm^3 for study #23, all mice in the study were sacrificed, and excised tumors were homogenized in buffer containing protease inhibitors. Both intra-tumor and pathologic plasma human VEGF levels were measured using an ELISA that recognizes human VEGF121 and VEGF165. Intra-tumor VEGF levels were normalized to the total tumor protein concentration and pathologic plasma VEGF levels were expressed in pg/mL. Because smaller tumors produce less VEGF per mg of tumor protein, intra-tumor VEGF levels were normalized to tumor size.
Experimental Design. HT1080 cells (5×10^6 cells/mouse) were implanted subcutaneously in male athymic nude mice. […] For comparison, Compound #10 was included in this study.
(§4) Experimental Design. HT1080 cells (5×10^6 cells/mouse) were implanted subcutaneously in male athymic nude mice.
Tumor size was measured by calipers immediately pre-treatment and at the time of sacrifice on Day 1, 2, or 3 (5 mice per group per day). At sacrifice, the plasma was collected for assay of pathologic human VEGF concentration using an ELISA that recognizes human VEGF121 and VEGF165 (as described in Section 9.1.1.1).

D245MG-PR cells = assay: D245MG-PR (procarbazine-resistant) lethality model of GBM, monotherapy and with temozolomide; format: in vivo, Balb/C nu/nu mice; settings: Cpd #10 10 mg/kg oral QD from Day 3; TMZ 250 mg/kg IP from Day 5 (control 70 days)
Description: Forty (40) female Balb/C nu/nu mice at least 6 weeks of age but not more than 12 weeks at study initiation, weighing at study initiation 18-28 g, were implanted intracranially. D245MG-PR cells (procarbazine-resistant cells derived from an adult human GBM tumor) in a medium using a 25-gauge needle. Mice were anesthetized with Ketamine/Rompun cocktail prior to IC implantation. The day of tumor cell implantation was designated as Day 0. Animals were randomly assigned to treatment groups (10 mice per treatment group).
Mice in Group 1 were administered L21 vehicle alone orally once per day beginning on Day 3. […] Mice in Group 3 were administered 250 mg/kg TMZ intraperitoneally (IP) beginning on Day 5.
Body weights were measured the day that dosing was initiated and once a week thereafter. Observations were made on animals that died or were sacrificed at an unscheduled interval. Animals were sacrificed if moribund.

[10] = test system: human VEGF121 and VEGF165; assay: Intratumoral and plasma human VEGF (ELISA) in nude mice bearing HT1080 xenografts; format: in vivo, athymic nude mice; settings: Day 1; Compound #10 10 mg/kg oral QD, doxorubicin 6 mg/kg IP, bevacizumab 5 mg/kg IP single bolus
Description: as §2
as §3, with “Intratumoral VEGF levels were normalized to the total tumor protein concentration, while pathologic plasma human VEGF levels were expressed in pg/mL of plasma.” left out
Experimental Design. […] Both intra-tumor and pathologic plasma human VEGF levels were measured using an ELISA that recognizes human VEGF121 and VEGF165. […]
Tumor size was measured by calipers immediately pre-treatment and at the time of sacrifice on Day 1, 2, or 3 (5 mice per group per day). […]

HT1080 xenografts [11] = assay: BrdU labeling of tumor cells from HT1080 xenografts in nude mice; format: in vivo, athymic nude mice; settings: Days 1-3; Compound #10 10 mg/kg oral QD, doxorubicin, bevacizumab
Description: as §4
The mice were sacrificed 3 hours later, and the tumors collected. A single cell suspension was prepared from the tumor cells. The cells were permeabilized and an antibody to BrdU was used to stain cells that had entered S phase during the labeling period. The proportion of cells actively synthesizing DNA was determined by cell sorting.

[12] = test system: soluble VEGF121 and VEGF165; assay: Inhibition of soluble VEGF production in human tumor cell lines, ELISA EC50 (Table 4); format: cell-based; settings: tumor cells, data not shown
Description: Study Design. […] In these experiments, cultures were established under normoxic conditions (21% oxygen). […] Cells requiring induction of VEGF production were incubated under hypoxic conditions (1% oxygen). At the completion of treatment, the conditioned media were collected and assayed by ELISA (as described in Section 9.1.1.1) for soluble VEGF121 and VEGF165 isoforms; results were calculated as percentage inhibition relative to vehicle treated controls. EC50 values were calculated from the dose concentration response curves.

HT1080 cells = assay: Cell cycle analysis in HT1080 cells, propidium iodide flow cytometry (Table 24; reversibility); format: cell-based, human; settings: tumor cells, data not shown
Description: Experimental Design. […] After treatment, cells were trypsinized, and stained with propidium iodide (PI) dye to measure DNA content of individual cells by flow cytometry. Output comprised histograms showing relative DNA content in 10,000 cells.
While compounds which cause greater than 20% of the cells to accumulate in S-phase at 100 nM are considered active, a larger percentage of cells may be accumulated in S-phase at lower doses depending on the Compound, as shown in FIG. 12 for example.

[13] = both sexes, 0.3 mg/kg, Stage 1, 0.3 mg/kg BID, Day 1, mean
[14] = both sexes, 0.3 mg/kg, Stage 1, 0.3 mg/kg BID, Day 7, mean
[15] = both sexes, 0.6 mg/kg, Stage 1, 0.6 mg/kg BID, Day 1, mean

COc1ccc([C@H]2c3[nH]c4ccc(Cl)cc4c3CCN2C(=O)Oc2ccc(Cl)cc2)cc1 (racemic) [Compound #10]
NOAEL at 7 days (in vivo [1]): 60 mg/kg/day
concentration at 16 h ([2]; 16 hours after the first day of dosing (n=3), read-out: Mean trough plasma concentration): 130 ng/mL
concentration at 16 h ([2]; 16 hours after the first day of dosing (n=3), read-out: Mean trough plasma concentration (value in brackets)): 280 ng/mL
concentration at 16 h ([2]; 16 hours after the last dose on Day 18 (n=4), read-out: Steady state mean trough plasma concentration): 820 ng/mL
NOAEL at 7 days ([3]; female rats): 120 mg/kg/day
NOAEL at 7 days ([3]; male rats): 40 mg/kg/day
NOAEL at 28 days (in vivo [4]): 30 mg/kg/day
NOAEL at 1 day [5]: 100 mg/kg
NOAEL at 28 days (in vivo [6]): 12 mg/kg/day
concentration at 24 h [7]: 100 to 150 ng/mL
concentration at 24 h ([8]; both sexes, 0.3 mg/kg BID, Stage 1, 0.3 mg/kg BID, Day 1, mean): 94 ng/mL
concentration at 24 h ([8]; both sexes, 0.3 mg/kg BID, Stage 1, 0.3 mg/kg BID, Day 7, mean): 210 ng/mL
AUC(0-t) [8, 13]: 4310 ng·h/mL
Cmax [8, 13]: 480 ng/mL
Tmax ([8]; both sexes, 0.3 mg/kg, Stage 1, 0.3 mg/kg BID, Day 1, mean, read-out: Tmax (after PM dose)): 3.16 h
AUC(0-t) [8, 14]: 8440 ng·h/mL
Cmax [8, 14]: 590 ng/mL
concentration at 24 h ([8]; both sexes, 0.6 mg/kg BID, Stage 1, 0.6 mg/kg BID, Day 1, mean): 260 ng/mL
concentration at 24 h ([8]; both sexes, 0.6 mg/kg BID, Stage 1, 0.6 mg/kg BID, Day 7, mean): 540 ng/mL
AUC(0-t) [8, 15]: 10100 ng·h/mL
Cmax [8, 15]: 970 ng/mL
Tmax ([8]; both sexes, 0.6 mg/kg, Stage 1, 0.6 mg/kg BID, Day 1, mean, read-out: Tmax (after PM dose)): 3.17 h
Cmax ([8]; both sexes, 0.6 mg/kg, Stage 1, 0.6 mg/kg BID, Day 7, mean): 1160 ng/mL
Tmax ([8]; both sexes, Stage 1 and Stage 2, read-out: Mean Tmax): ~3 h
AUC(0-t) ([8]; both sexes, Stage 1, 0.6 mg/kg BID, Day 7, mean): 18600 ng·h/mL
Tmax ([8]; both, […], Stage 2, […] TID, Day 1, mean, read-out: Tmax (after PM dose)): 2.5 h
Tmax ([8]; both, Stage 1, 1.2 mg/kg BID, Day 1, mean, read-out: Tmax (after PM dose)): 3 h

O=C(Oc1ccc(Cl)cc1)N1CCc2c([nH]c3ccc(Cl)cc23)[C@@H]1c1ccc(OCC[C@H](O)CO)cc1 [Compound 1205]
Mean difference in tumor growth rate at the Day that the vehicle-treated tumors taken off study (%) (HT1080 xenografts [9]; Study 21, 3 mg/kg QD, Day 14): 80%**
Mean difference in tumor growth rate at the Day that the vehicle-treated tumors taken off study (%) (HT1080 xenografts [9]; Study 22, 0.5 mg/kg QD, Day 11): 62%**
Mean difference in tumor growth rate at the Day that the vehicle-treated tumors taken off study (%) (HT1080 xenografts [9]; Study 22, 3 mg/kg QD, Day 11): 75%**
Mean difference in tumor growth rate at the Day that the vehicle-treated tumors taken off study (%) (HT1080 xenografts [9]; Study 23, 1 mg/kg QD, Day 14): 59%**
Mean difference in tumor growth rate at the Day that the vehicle-treated tumors taken off study (%) (HT1080 xenografts [9]; Study 24a, 10 mg/kg QD, Day 11): 76%**
Mean difference in tumor growth rate at the Day that the vehicle-treated tumors taken off study (%) (HT1080 xenografts [9]; Study 24b, 0.3 mg/kg QD, Day 15): 28% ^

Cn1nnc2c(C(N)=O)ncn2c1=O [TEMODAR, temozolomide]
Median survival time (D245MG-PR cells): 86 days

COc1cccc2c1C(=O)c1c(O)c3c(c(O)c1C2=O)C[C@@](O)(C(=O)CO)C[C@@H]3O[C@H]1C[C@H](N)[C@H](O)[C@H](C)O1 [doxorubicin]
Pathologic plasma human VEGF levels vs control [10]: numerically lower than in control animals by Day 1
BrdU staining of tumor cells (fraction in S phase) (HT1080 xenografts [11]): decreased the percentage of tumor cells staining with BrdU

NC(Cn1ccc(=O)c(O)c1)C(=O)O (centres unmarked) [mimosine]
VEGF production [12]: does not delay or prolong the cell cycle or reduce VEGF production
Cell cycle delay or prolongation (HT1080 cells): does not delay or prolong the cell cycle or reduce VEGF production
